Measurements taken from article PMC4877593, “Design and Synthesis of Potent in Vitro and in Vivo Anticancer Agents Based on 1-(3′,4′,5′-Trimethoxyphenyl)-2-Aryl-1H-Imidazole” (Scientific Reports, 2016).
Like-named read-outs stand apart in the source and are kept apart here.

Assays:
[1] = tested on: panel of seven human tumor cell lines; conditions: previously published triazole; ref 16d; read-out: IC50 values in the same seven cell lines (range); cited from earlier work
RS4;11 = experiment: In vitro antiproliferative activity (MTT), RS4;11; assay type: cell-based; conditions: Homo sapiens, tumor cell proliferation, 72 h, mean ± SE
HL-60 = experiment: In vitro antiproliferative activity (MTT), HL-60; assay type: cell-based; conditions: Homo sapiens, tumor cell proliferation, 72 h, mean ± SE
A549 = experiment: In vitro antiproliferative activity (MTT), A549; assay type: cell-based; conditions: Homo sapiens, tumor cell proliferation, 72 h, mean ± SE
Experimental: (§1) Human T-cell leukemia (CCRF-CEM and Jurkat) and human B-cell leukemia (SEM) cells were grown in RPMI-1640 medium (Gibco, Milano, Italy). Breast adenocarcinoma (MCF7), human cervix carcinoma (HeLa), and human colon adenocarcinoma (HT-29) cells were grown in DMEM medium (Gibco, Milano, Italy), all supplemented with 115 units/mL penicillin G (Gibco, Milano, Italy), 115 μg/mL streptomycin (Invitrogen, Milano, Italy), and 10% fetal bovine serum (Invitrogen, Milano, Italy). Stock solutions (10 mM) of the different compounds were obtained by dissolving them in dimethyl sulfoxide (DMSO). Individual wells of a 96-well tissue culture microtiter plate were inoculated with 100 μL of complete medium containing 8 × 10^3 cells. The plates were incubated at 37 °C in a humidified 5% CO2 incubator for 18 h prior to the experiments. After medium removal, 100 μL of fresh medium containing the test compound at different concentrations was added to each well in triplicate and incubated at 37 °C for 72 h. The percentage of DMSO in the medium never exceeded 0.25%. This was also the maximum DMSO concentration in all cell-based assays described below. […] Different concentrations of the test compounds were added, and viability was determined 72 h later by the MTT test. For cytotoxicity evaluations in resting PBL cultures, non-adherent cells were resuspended (5 × 10^5 cells/mL) and treated for 72 h with the test compounds, as described above.

[2] = tested on: panel of seven human tumor cell lines; experiment: Antiproliferative activity across the panel of seven human tumor cell lines; assay type: cell-based
Experimental: as §1

MCF-7 = experiment: In vitro antiproliferative activity (MTT), MCF-7; assay type: cell-based; conditions: Homo sapiens, MCF7, tumor cell proliferation, 72 h, mean ± SE
Experimental: as §1

HT-29 = experiment: In vitro antiproliferative activity (MTT), HT-29; assay type: cell-based; conditions: Homo sapiens, tumor cell proliferation, 72 h, mean ± SE
Experimental: as §1

bovine brain tubulin = experiment: Inhibition of tubulin polymerization (turbidimetry); assay type: biochemical
Experimental: To evaluate the effect of the compounds on tubulin assembly in vitro[22], varying concentrations of compounds were preincubated with 10 μM bovine brain tubulin in glutamate buffer at 30 °C and then cooled to 0 °C. After addition of 0.4 mM GTP (final concentration), the mixtures were transferred to 0 °C cuvettes in a recording spectrophotometer equipped with an electronic temperature controller and warmed to 30 °C. Tubulin assembly was followed turbidimetrically at 350 nm. […] The ability of the test compounds to inhibit colchicine binding to tubulin was measured as described, except that the reaction mixtures contained 1 μM tubulin, 5 μM [^3H]colchicine and 1 or 5 μM test compound.

Jurkat = experiment: In vitro antiproliferative activity (MTT), Jurkat; assay type: cell-based; conditions: Homo sapiens, tumor cell proliferation, 72 h, mean ± SE
Experimental: as §1

HeLa = experiment: In vitro antiproliferative activity (MTT), HeLa; assay type: cell-based; conditions: Homo sapiens, tumor cell proliferation, 72 h, mean ± SE
Experimental: as §1

[3] = tested on: NCI-H460 (human lung large cell carcinoma); conditions: cited from earlier work
[4] = tested on: HCT-15 (human colon adenocarcinoma); conditions: cited from earlier work
tubulin [5] = conditions: read-out: IC50 inhibitor of tubulin polymerization; cited from earlier work
tubulin [6] = experiment: Inhibition of [3H]colchicine binding to tubulin; design: species or system bovine; conditions: tubulin 1 μM, [3H]colchicine 5 μM
[7] = average over the seven cell lines, read-out: average IC50 values
[8] = tubulin at 10 μM, 20 min incubation, read-out: Tubulin assembly IC50 ± S.D.
[9] = range over seven cancer cell lines, read-out: IC50 values in the seven cell lines (range)
[10] = repeated beside the calculated energies, read-out: inhibition of tubulin polymerization IC50 (Table 4)

Row | Molecule | IC50 (RS4;11) [nM] | IC50 (HL-60) [nM] | IC50 (A549) [nM] | IC50 [2, 7] [nM] | IC50 (MCF-7) [nM] | IC50 (HT-29) [nM] | IC50 (bovine brain tubulin; [8]) [nM] | IC50 (Jurkat) [nM] | IC50 (HeLa) [nM] | IC50 [2, 9] [nM] | Colchicine binding % inhibition ± S.D., 5 μM drug (tubulin [6]) [%] | IC50 (bovine brain tubulin; [10]) [nM] | melting point [°C] | IC50 [1] [nM] | IC50 [3] [nM] | IC50 [4] [nM] | IC50 (tubulin [5]) [nM]
1 | 1-(3′,4′,5′-trimethoxyphenyl)-5-(3′-chloro-4′-ethoxyphenyl) triazole | – | – | – | – | – | – | – | – | – | – | – | – | – | 3 to 20 | – | – | –
2 | COc1ccc(/C=C\c2cc(OC)c(OC)c(OC)c2)cc1O [CA-4, Combretastatin A-4, reference compound] | […] | […] | […] | 523 | 5 ± 0.6 | 180 ± 30 | […] | 0.8 ± 0.2 | […] | – | – | – | – | – | – | – | –
3 | COc1cc(-n2ccnc2-c2ccc(N(C)C)cc2)cc(OC)c1OC [Compound 3a, 1-(3′,4′,5′-trimethoxyphenyl)-2-(4′-N,N-dimethylaminophenyl)-1H-imidazole] | – | – | – | – | – | – | – | – | – | – | – | – | – | – | 270 | 80 | 35000
4 | COc1ccc(-c2nccn2-c2cc(OC)c(OC)c(OC)c2)cc1 [Compound 3b, reference compound] | 5400 ± 950 | 4770 ± 120 | 1010 ± 104 | 1710 | 230 ± 55 | 233 ± 52 | – | 133 ± 31 | 210 ± 10.2 | 210 to 5400 | – | – | – | – | 1100 | 1600 | –
5 | COc1cc(-n2ccnc2-c2ccc3ccccc3c2)cc(OC)c1OC [Compound 3c, reference compound] | 62.3 ± 10.3 | 24 ± 12.1 | 7.1 ± 1.5 | 15 | 4.6 ± 2.3 | 3.6 ± 0.9 | 1800 | 2.5 ± 0.9 | 2 ± 0.14 | 2 to 62.3 | 65 ± 4 | 1800 | – | – | 57 | 51 | –

Second part, led by results:

Row | IC50 (RS4;11) [nM] | IC50 (HL-60) [nM] | IC50 (A549) [nM] | IC50 [2, 7] [nM] | IC50 (MCF-7) [nM] | IC50 (HT-29) [nM] | IC50 (bovine brain tubulin; [8]) [nM] | IC50 (Jurkat) [nM] | IC50 (HeLa) [nM] | IC50 [2, 9] [nM] | Colchicine binding % inhibition ± S.D., 5 μM drug (tubulin [6]) [%] | IC50 (bovine brain tubulin; [10]) [nM] | melting point [°C] | Molecule | IC50 [1] [nM] | IC50 [3] [nM] | IC50 [4] [nM] | IC50 (tubulin [5]) [nM]
6 | 34.7 | 4.8 ± 1.9 | 1.9 ± 1 | 7.1 | 1.5 ± 0.2 | 1.8 ± 0.8 | 630 | 1.2 ± 0.5 | 3.7 ± 0.12 | 1.8 to 34.7 | – | 630 | 132 to 134 | CCOc1ccc(-c2nccn2-c2cc(OC)c(OC)c(OC)c2)cc1 [Compound 4k, 2-(4′-Ethoxyphenyl)-1-(3′,4′,5′-trimethoxyphenyl)-1H-imidazole] | – | – | – | –
7 | > 10000 | > 10000 | > 10000 | – | > 10000 | > 10000 | – | > 10000 | > 10000 | – | – | – | 121 to 122 | CCOc1cccc(-c2nccn2-c2cc(OC)c(OC)c(OC)c2)c1 [Compound 4l, 2-(3′-Ethoxyphenyl)-1-(3′,4′,5′-trimethoxyphenyl)-1H-imidazole] | – | – | – | –
8 | > 10000 | > 10000 | > 10000 | – | > 10000 | > 10000 | – | > 10000 | > 10000 | – | – | – | 130 to 132 | CCOc1ccccc1-c1nccn1-c1cc(OC)c(OC)c(OC)c1 [Compound 4m, 2-(2′-Ethoxyphenyl)-1-(3′,4′,5′-trimethoxyphenyl)-1H-imidazole] | – | – | – | –
9 | 8.6 ± 1.1 | 3.5 ± 0.73 | 14 ± 2.3 | 7.2 | 3.4 ± 0.38 | 7.5 ± 1.2 | 570 | 12 ± 6.6 | 1.5 ± 0.32 | 1.5 to 14.2 | – | – | 127 to 129 | CCOc1ccc(-c2nccn2-c2cc(OC)c(OC)c(OC)c2)cc1F [Compound 4n, 2-(3′-Fluoro-4′-ethoxyphenyl)-1-(3′,4′,5′-trimethoxyphenyl)-1H-imidazole] | – | – | – | –
10 | 85 ± 20 | 12 ± 2.5 | 228 ± 81 | – | 69 ± 7 | 174 ± 16 | – | 127 ± 27 | 48 ± 2.5 | – | – | – | 143 to 145 | CCSc1ccc(-c2nccn2-c2cc(OC)c(OC)c(OC)c2)cc1 [Compound 4p, 2-(4′-(Ethylthio)phenyl)-1-(3′,4′,5′-trimethoxyphenyl)-1H-imidazole] | – | – | – | –
11 | 91 ± 8.9 | 63 ± 17.6 | 63 ± 18.1 | – | 1.7 ± 0.6 | 15 ± 1.3 | 1400 ± 100 | 42 ± 3.9 | 2.9 ± 0.8 | – | – | 1400 | – | CCCOc1ccc(-c2nccn2-c2cc(OC)c(OC)c(OC)c2)cc1 [Compound 4q, 1-(3′,4′,5′-Trimethoxyphenyl)-2-(4′-n-propoxyphenyl)-1H-imidazole] | – | – | – | –
